Reference: patent publication US10570117B2, “Phenylimidazole compound” (Otsuka Pharmaceutical Factory, Inc., priority 2015, dated 2020)
Values after ≈ are worked out from the molar mass of the structure shown. Like-named read-outs stand apart in the source and are kept apart here.

Assays:
[1] = Solubility in gastric juice or intestinal juice model fluid (precipitation method using DMSO); type: physicochemical; conditions: room temperature
Procedure, shortened: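 Compound in DMSO added to JP disintegration test fluid 1 (pH 1.2) or fluid 2 (pH 6.8) and shaken 24 h at room temperature. After filtration, dissolved concentration (μg/mL) determined by UV absorbance against compound calibration curves.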

[2] = tested on: lipoprotein lipase (LPL) gene; experiment: LPL mRNA elevating action (RT-PCR quantification of LPL mRNA in C2Cl2 cells); type: cell-based, mouse; conditions: Mus musculus, 24 h, compound 10 μM, ratio relative to the amount of LPL mRNA in cells with DMSO only, read-out: Rate of increase in LPL mRNA
Description: LPL mRNA Elevating Action
C2Cl2 cells (cell strain derived from striated muscle of mouse) were seeded in 96-well plates using a DMEM medium (Gibco) (containing 2 mM L-glutamine and 10% fetal bovine serum). After the cells were grown, the medium was removed. Subsequently, media obtained by adding dimethyl sulfoxide (DMSO) solutions of the compounds to the same medium as described above to a concentration of 10 μM were individually added to the cells and allowed to stand for 24 hours. The compound-containing media were removed, and the plates were washed with phosphate buffered saline. Thereafter, the remaining cells were lysed and subjected to a reverse transcription polymerase chain reaction (RT-PCR reaction) to obtain cDNA. Primers specific to lipoprotein lipase (LPL) gene, a necessary enzyme, etc., were added to the obtained cDNA. The mixture was set in 7500 Fast Real Time PCR System produced by Applied Biosystem to perform a PCR reaction (20 cycles) and the amount of LPL mRNA amplified was quantified. The LPL mRNA elevating action of each compound in the test cells was indicated as the ratio relative to the amount of LPL mRNA in cells allowed to stand in a medium to which only DMSO was added, with the amount being defined as 1.
As Comparative Example 1, a test was performed in the same manner as above, using a compound disclosed as the compound of Example 57 in WO2010/090200.

[3] = pH 1.2, simulated gastric fluid, kinetic from dmso stock, 1st fluid for Disintegration Test of Japanese Pharmacopoeia (pH: 1.2), read-out: Solubility (μg/mL) 1st fluid
[4] = pH 6.8, kinetic from dmso stock, 2nd fluid for Disintegration Test of Japanese Pharmacopoeia (pH: 6.8), read-out: Solubility (μg/mL) 2nd fluid

Row | solubility at 24 h [1, 3] | solubility at 24 h [1, 4] | melting point | Structure (SMILES) | fold induction at 10 µM [2]
1 | > 62 µg/mL | 59.7 µg/mL (≈ 194 µM) | – | COc1cc(O)ccc1-c1cnc(C2CCC(F)(F)CC2)[nH]1 [Example 338] | 1.32
2 | 93.8 µg/mL (≈ 199 µM) | 8.1 µg/mL (≈ 17.2 µM) | – | COc1cc(OCc2ncc(C(F)(F)F)cc2F)ccc1-c1cnc(C2CCC(F)(F)C2)[nH]1 (centres unmarked) [Example 340] | 2.26
3 | 91.7 µg/mL (≈ 195 µM) | 15.8 µg/mL (≈ 33.5 µM) | – | COc1cc(-c2cnc(C3CCC(F)(F)C3)[nH]2)ccc1OCc1ncc(C(F)(F)F)cc1F (centres unmarked) [Example 341] | 1.75
4 | 95.5 µg/mL (≈ 195 µM) | 5 µg/mL (≈ 10.2 µM) | – | CCc1nc(-c2ccc(F)nc2)[nH]c1-c1ccc(OCc2ncc(C(F)(F)F)cc2F)cc1OC [Example 362] | 2.89
5 | 79.2 µg/mL (≈ 182 µM) | 24.7 µg/mL (≈ 56.7 µM) | – | COc1cc(-c2cnc(C3CCCC3)[nH]2)ccc1OCc1ncc(C(F)(F)F)cc1F [Example 366] | 1.95
6 | 84 µg/mL (≈ 199 µM) | 42.9 µg/mL (≈ 102 µM) | – | COc1cc(OCc2ncc(C(F)(F)F)cc2F)ccc1-c1cnc(C2CCC2)[nH]1 [Example 371] | 3.57
7 | 80.4 µg/mL (≈ 191 µM) | 33.5 µg/mL (≈ 79.5 µM) | – | COc1cc(-c2cnc(C3CCC3)[nH]2)ccc1OCc1ncc(C(F)(F)F)cc1F [Example 372] | 1.95
8 | 73.9 µg/mL (≈ 181 µM) | 72.5 µg/mL (≈ 178 µM) | – | COc1cc(OCc2ncc(C(F)(F)F)cc2F)ccc1-c1cnc(C2CC2)[nH]1 [Example 375] | 1.83
9 | 75.2 µg/mL (≈ 185 µM) | 79.4 µg/mL (≈ 195 µM) | – | COc1cc(-c2cnc(C3CC3)[nH]2)ccc1OCc1ncc(C(F)(F)F)cc1F [Example 376] | 1.18

Second part, the molecule before the results:

Row | Structure (SMILES) | solubility at 24 h [1, 3] | solubility at 24 h [1, 4] | melting point | fold induction at 10 µM [2]
10 | COc1cc(OC(C)c2ncc(C(F)(F)F)cc2F)ccc1-c1[nH]c(-c2ccc(F)nc2)nc1Cl (centres unmarked) [Example 289] | 10.8 µg/mL (≈ 21.1 µM) | 2.2 µg/mL (≈ 4.31 µM) | 155 to 159 °C | –
11 | COc1cc(O[C@@H](C)c2ccc(C(F)(F)F)nc2)ccc1-c1[nH]c(-c2ccc(F)nc2)nc1Cl [Example 291] | 9.9 µg/mL (≈ 20.1 µM) | 3.5 µg/mL (≈ 7.1 µM) | 74 to 97 °C | –
12 | COc1cc(OCc2ccc(C(F)(F)F)cn2)ccc1-c1c(Cl)nc(-c2ccc(F)nc2)n1CC1CC1 [Example 296] | 73 µg/mL (≈ 137 µM) | 2.3 µg/mL (≈ 4.32 µM) | – | 3.48
13 | COc1cc(OCc2ccc(C(F)(F)F)nc2)ccc1-c1nc(-c2ccc(Cl)nc2)n(C)c1Br [Example 298] | 108 µg/mL (≈ 196 µM) | 1.6 µg/mL (≈ 2.89 µM) | 177 to 182 °C | –
14 | COc1cc(OCc2ccc(C(F)(F)F)nc2)ccc1-c1c(Br)nc(-c2ccc(F)nc2)n1C [Example 305] | 24.7 µg/mL (≈ 46 µM) | 0.4 µg/mL (≈ 0.744 µM) | 134 to 136 °C | –
15 | COc1cc(OCc2ccc(C(F)(F)F)nc2)ccc1-c1c(Cl)nc(-c2ccc(F)nc2)n1C [Example 311] | 5.6 µg/mL (≈ 11.4 µM) | < 0.4 µg/mL | 138 to 140 °C | –
16 | COc1cc(OCc2ccc(C(F)(F)F)cn2)ccc1-c1c(Cl)nc(-c2ccc(F)nc2)n1C [Example 312] | 23.6 µg/mL (≈ 47.9 µM) | < 0.4 µg/mL | 142 to 144 °C | –
17 | COc1cc(-c2cnc(-c3ccc(F)nc3)[nH]2)ccc1OCc1ncc(C(F)(F)F)cc1F [Example 324] | 20.2 µg/mL (≈ 43.7 µM) | 0.8 µg/mL (≈ 1.73 µM) | – | 1.95
18 | COc1cc(OCc2ncc(C(F)(F)F)cc2F)ccc1-c1[nH]c(C2CC(F)(F)C2)nc1F [Example 401] | – | – | – | 2.9
19 | COc1cc(OCc2ncc(C(F)(F)F)cc2F)ccc1-c1cnc(-c2ccc(C)nc2)[nH]1 [Example 402] | – | – | – | 2.37
20 | COc1cc(-c2cnc(-c3ccc(C)nc3)[nH]2)ccc1OCc1ncc(C(F)(F)F)cc1F [Example 403] | – | – | – | 2.09
21 | COc1cc(OCc2ncc(C(F)(F)F)cc2F)ccc1-c1[nH]c(-c2ccc(C)nc2)nc1Cl [Example 404] | – | – | – | 3.26
22 | COc1cc(-c2[nH]c(-c3ccc(C)nc3)nc2Cl)ccc1OCc1ncc(C(F)(F)F)cc1F [Example 405] | – | – | – | 2.78
